Publication PMC12090182, “Repurposing of the RIPK1-Selective Benzo[1,4]oxazepin-4-one Scaffold for the Development of a Type III LIMK1/2 Inhibitor” (ACS Chemical Biology, 2025)

Key:
Assay in all cases: scanMAX KINOMEscan (Eurofins)
Assay type in all cases: binding
PDPK1 = PDPK1 (Homo sapiens, UniProt O15530); conditions: 1000 nM, read-out: Percent Control
Excerpt: (§1) Supplement cb5c00097_si_002.xlsx, sheet "Table S6 (Eurofins Selectivity)" | column: Percent Control

INSR = INSR (Homo sapiens, UniProt P06213); conditions: 1000 nM, read-out: Percent Control
Excerpt: as §1

PIM1 = PIM1 (Homo sapiens, UniProt P11309); conditions: 1000 nM, read-out: Percent Control
Excerpt: as §1

DLK = DLK (Homo sapiens, UniProt Q12852); conditions: 1000 nM, read-out: Percent Control
Excerpt: as §1

CAMK1 = CAMK1 (Homo sapiens, UniProt Q14012); conditions: read-out: Percent Control
Excerpt: as §1

FGR = FGR (Homo sapiens, UniProt P09769); conditions: read-out: Percent Control
Excerpt: as §1

EPHB3 = EPHB3 (Homo sapiens, UniProt P54753); conditions: read-out: Percent Control
Excerpt: as §1

CDK2 = CDK2 (Homo sapiens, UniProt P24941); conditions: 1000 nM, read-out: Percent Control
Excerpt: as §1

VRK2 = VRK2 (Homo sapiens, UniProt Q86Y07); conditions: compound concentration 100 nM; Entrez VRK2; read-out: Percent Control
Excerpt: as §1

FGFR3 = FGFR3 (Homo sapiens, UniProt P22607); conditions: read-out: Percent Control
Excerpt: as §1

PDGFRB = PDGFRB (Homo sapiens, UniProt P09619); conditions: 1000 nM, read-out: Percent Control
Excerpt: as §1

ERK2 = ERK2 (Homo sapiens, UniProt P28482); conditions: 1000 nM, read-out: Percent Control
Excerpt: as §1

IRAK3 = IRAK3 (Homo sapiens, UniProt Q9Y616); conditions: read-out: Percent Control
Excerpt: as §1

RIOK1 = RIOK1 (Homo sapiens, UniProt Q9BRS2); conditions: 1000 nM, read-out: Percent Control
Excerpt: as §1

[1] = target: RSK3(Kin.Dom.1-N-terminal) (Homo sapiens, UniProt Q15349); conditions: 1000 nM, read-out: Percent Control
Excerpt: as §1

[2] = target: RPS6KA4(Kin.Dom.2-C-terminal) (Homo sapiens, UniProt O75676); conditions: compound concentration 100 nM; Entrez RPS6KA4; read-out: Percent Control
Excerpt: as §1

TNK1 = TNK1 (Homo sapiens, UniProt Q13470); conditions: 1000 nM, read-out: Percent Control
Excerpt: as §1

ROCK2 = ROCK2 (Homo sapiens, UniProt O75116); conditions: 1000 nM, read-out: Percent Control
Excerpt: as §1

MARK1 = MARK1 (Homo sapiens, UniProt Q9P0L2); conditions: compound concentration 100 nM; Entrez MARK1; read-out: Percent Control
Excerpt: as §1

PAK1 = PAK1 (Homo sapiens, UniProt Q13153); conditions: 1000 nM, read-out: Percent Control
Excerpt: as §1

YSK1 = YSK1 (Homo sapiens, UniProt O00506); conditions: compound concentration 100 nM; Entrez STK25; read-out: Percent Control
Excerpt: as §1

MEK6 = MEK6 (Homo sapiens, UniProt P52564); conditions: compound concentration 100 nM; Entrez MAP2K6; read-out: Percent Control
Excerpt: as §1

[3] = target: JAK2(JH1domain-catalytic) (Homo sapiens, UniProt O60674); conditions: compound concentration 100 nM; Entrez JAK2; read-out: Percent Control
Excerpt: as §1

IKK-alpha = IKK-alpha (Homo sapiens, UniProt O15111); conditions: read-out: Percent Control
Excerpt: as §1

ULK2 = ULK2 (Homo sapiens, UniProt Q8IYT8); conditions: compound concentration 100 nM; Entrez ULK2; read-out: Percent Control
Excerpt: as §1

CSNK1A1L = CSNK1A1L (Homo sapiens, UniProt Q8N752); conditions: 1000 nM, read-out: Percent Control
Excerpt: as §1

MLK3 = MLK3 (Homo sapiens, UniProt Q16584); conditions: 1000 nM, read-out: Percent Control
Excerpt: as §1

PRKG2 = PRKG2 (Homo sapiens, UniProt Q13237); conditions: 1000 nM, read-out: Percent Control
Excerpt: as §1

ERK4 = ERK4 (Homo sapiens, UniProt P31152); conditions: 1000 nM, read-out: Percent Control
Excerpt: as §1

[4] = target: TYK2(JH2domain-pseudokinase) (Homo sapiens, UniProt P29597); conditions: compound concentration 100 nM; Entrez TYK2; read-out: Percent Control
Excerpt: as §1

STK33 = STK33 (Homo sapiens, UniProt Q9BYT3); conditions: compound concentration 100 nM; Entrez STK33; read-out: Percent Control
Excerpt: as §1

ERBB4 = ERBB4 (Homo sapiens, UniProt Q15303); conditions: 1000 nM, read-out: Percent Control
Excerpt: as §1

AKT3 = AKT3 (Homo sapiens, UniProt Q9Y243); conditions: read-out: Percent Control
Excerpt: as §1

MERTK = MERTK (Homo sapiens, UniProt Q12866); conditions: 1000 nM, read-out: Percent Control
Excerpt: as §1

p38-gamma = p38-gamma (Homo sapiens, UniProt P53778); conditions: 1000 nM, read-out: Percent Control
Excerpt: as §1

NEK5 = NEK5 (Homo sapiens, UniProt Q6P3R8); conditions: 1000 nM, read-out: Percent Control
Excerpt: as §1

Sequence of AKT3 (Q9Y243 whole entry): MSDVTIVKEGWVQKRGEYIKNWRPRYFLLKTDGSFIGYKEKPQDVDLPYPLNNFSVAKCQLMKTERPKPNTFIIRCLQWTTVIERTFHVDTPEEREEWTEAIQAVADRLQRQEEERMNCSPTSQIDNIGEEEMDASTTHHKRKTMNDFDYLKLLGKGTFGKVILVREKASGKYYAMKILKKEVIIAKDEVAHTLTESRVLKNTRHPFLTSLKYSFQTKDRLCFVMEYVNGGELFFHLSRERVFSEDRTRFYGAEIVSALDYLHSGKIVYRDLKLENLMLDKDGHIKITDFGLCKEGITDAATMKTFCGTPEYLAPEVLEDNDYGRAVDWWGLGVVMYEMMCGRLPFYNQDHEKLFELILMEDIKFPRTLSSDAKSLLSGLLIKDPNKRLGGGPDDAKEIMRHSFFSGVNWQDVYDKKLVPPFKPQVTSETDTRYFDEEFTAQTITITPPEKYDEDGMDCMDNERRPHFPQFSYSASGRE
Sequence of FGFR3 (P22607 23-806): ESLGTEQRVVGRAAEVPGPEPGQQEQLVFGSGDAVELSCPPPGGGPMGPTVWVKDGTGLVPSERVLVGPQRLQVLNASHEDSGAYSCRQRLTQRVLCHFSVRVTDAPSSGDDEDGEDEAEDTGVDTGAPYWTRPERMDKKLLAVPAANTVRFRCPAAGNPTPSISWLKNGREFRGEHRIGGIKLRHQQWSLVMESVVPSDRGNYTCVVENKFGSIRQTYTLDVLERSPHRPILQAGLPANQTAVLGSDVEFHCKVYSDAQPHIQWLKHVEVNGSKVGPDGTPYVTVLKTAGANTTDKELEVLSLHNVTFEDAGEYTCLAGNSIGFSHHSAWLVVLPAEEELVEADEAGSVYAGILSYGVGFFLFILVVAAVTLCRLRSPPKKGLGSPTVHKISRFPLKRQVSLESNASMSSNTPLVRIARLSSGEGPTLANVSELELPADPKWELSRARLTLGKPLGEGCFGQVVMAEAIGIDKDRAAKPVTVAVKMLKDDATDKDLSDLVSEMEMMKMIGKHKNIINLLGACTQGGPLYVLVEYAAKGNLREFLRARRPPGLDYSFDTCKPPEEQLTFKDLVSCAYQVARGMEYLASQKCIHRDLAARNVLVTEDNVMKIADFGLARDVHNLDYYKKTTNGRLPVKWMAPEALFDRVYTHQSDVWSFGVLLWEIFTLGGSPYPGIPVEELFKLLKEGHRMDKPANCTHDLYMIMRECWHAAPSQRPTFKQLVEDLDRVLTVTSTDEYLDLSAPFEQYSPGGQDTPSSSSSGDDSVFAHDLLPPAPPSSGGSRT
Sequence of FGR (P09769 whole entry): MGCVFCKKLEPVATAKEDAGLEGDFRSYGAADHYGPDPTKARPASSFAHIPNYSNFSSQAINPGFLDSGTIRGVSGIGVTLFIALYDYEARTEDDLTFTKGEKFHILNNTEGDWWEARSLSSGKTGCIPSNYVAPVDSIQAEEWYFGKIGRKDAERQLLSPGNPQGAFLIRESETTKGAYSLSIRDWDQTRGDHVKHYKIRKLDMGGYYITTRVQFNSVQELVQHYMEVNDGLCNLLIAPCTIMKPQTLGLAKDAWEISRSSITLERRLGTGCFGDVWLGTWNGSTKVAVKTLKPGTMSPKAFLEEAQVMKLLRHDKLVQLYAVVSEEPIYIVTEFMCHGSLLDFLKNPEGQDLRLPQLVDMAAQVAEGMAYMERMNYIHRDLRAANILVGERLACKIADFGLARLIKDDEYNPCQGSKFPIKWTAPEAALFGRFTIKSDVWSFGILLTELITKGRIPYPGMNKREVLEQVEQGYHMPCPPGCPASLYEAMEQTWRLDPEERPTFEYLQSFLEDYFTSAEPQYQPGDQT
Sequence of IRAK3 (Q9Y616 whole entry): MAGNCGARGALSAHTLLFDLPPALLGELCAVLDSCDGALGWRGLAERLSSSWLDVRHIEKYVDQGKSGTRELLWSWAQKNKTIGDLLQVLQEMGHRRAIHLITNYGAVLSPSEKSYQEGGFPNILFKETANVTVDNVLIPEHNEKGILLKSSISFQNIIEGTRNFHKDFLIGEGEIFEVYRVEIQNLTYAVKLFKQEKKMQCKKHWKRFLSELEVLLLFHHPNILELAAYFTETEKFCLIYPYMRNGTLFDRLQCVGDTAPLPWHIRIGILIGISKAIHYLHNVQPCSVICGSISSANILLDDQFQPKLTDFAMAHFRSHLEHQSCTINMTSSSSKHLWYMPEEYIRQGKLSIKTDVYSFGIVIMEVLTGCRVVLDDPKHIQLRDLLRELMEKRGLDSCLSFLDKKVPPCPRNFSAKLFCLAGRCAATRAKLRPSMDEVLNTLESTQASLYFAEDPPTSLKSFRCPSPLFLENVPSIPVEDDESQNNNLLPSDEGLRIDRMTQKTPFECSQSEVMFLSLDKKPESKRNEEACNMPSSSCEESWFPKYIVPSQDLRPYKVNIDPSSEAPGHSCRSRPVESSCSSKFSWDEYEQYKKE
Sequence of EPHB3 (P54753 34-998): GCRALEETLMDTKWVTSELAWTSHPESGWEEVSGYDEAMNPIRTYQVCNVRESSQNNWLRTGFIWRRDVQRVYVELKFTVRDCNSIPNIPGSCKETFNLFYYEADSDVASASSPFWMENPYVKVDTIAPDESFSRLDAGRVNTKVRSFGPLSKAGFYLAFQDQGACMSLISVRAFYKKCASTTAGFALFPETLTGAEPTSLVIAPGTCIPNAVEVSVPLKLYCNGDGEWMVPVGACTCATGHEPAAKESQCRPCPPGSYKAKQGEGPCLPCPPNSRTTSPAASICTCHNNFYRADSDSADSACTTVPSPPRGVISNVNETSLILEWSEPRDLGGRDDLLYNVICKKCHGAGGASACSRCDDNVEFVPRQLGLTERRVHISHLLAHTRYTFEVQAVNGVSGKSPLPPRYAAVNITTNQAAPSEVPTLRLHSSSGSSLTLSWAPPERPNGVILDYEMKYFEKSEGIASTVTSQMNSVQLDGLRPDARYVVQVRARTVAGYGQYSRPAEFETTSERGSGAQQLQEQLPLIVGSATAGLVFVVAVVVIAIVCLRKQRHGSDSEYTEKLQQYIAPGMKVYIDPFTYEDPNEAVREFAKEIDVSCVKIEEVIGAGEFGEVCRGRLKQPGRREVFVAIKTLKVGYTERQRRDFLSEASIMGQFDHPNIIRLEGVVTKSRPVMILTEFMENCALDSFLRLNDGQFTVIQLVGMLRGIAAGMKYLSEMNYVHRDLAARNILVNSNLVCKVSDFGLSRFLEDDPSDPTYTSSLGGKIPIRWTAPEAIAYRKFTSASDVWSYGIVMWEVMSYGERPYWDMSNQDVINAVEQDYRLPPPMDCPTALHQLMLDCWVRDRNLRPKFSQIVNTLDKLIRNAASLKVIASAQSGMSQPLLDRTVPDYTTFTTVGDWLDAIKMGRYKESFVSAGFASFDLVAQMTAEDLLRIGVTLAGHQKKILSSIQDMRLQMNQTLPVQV
Sequence of IKK-alpha (O15111 whole entry): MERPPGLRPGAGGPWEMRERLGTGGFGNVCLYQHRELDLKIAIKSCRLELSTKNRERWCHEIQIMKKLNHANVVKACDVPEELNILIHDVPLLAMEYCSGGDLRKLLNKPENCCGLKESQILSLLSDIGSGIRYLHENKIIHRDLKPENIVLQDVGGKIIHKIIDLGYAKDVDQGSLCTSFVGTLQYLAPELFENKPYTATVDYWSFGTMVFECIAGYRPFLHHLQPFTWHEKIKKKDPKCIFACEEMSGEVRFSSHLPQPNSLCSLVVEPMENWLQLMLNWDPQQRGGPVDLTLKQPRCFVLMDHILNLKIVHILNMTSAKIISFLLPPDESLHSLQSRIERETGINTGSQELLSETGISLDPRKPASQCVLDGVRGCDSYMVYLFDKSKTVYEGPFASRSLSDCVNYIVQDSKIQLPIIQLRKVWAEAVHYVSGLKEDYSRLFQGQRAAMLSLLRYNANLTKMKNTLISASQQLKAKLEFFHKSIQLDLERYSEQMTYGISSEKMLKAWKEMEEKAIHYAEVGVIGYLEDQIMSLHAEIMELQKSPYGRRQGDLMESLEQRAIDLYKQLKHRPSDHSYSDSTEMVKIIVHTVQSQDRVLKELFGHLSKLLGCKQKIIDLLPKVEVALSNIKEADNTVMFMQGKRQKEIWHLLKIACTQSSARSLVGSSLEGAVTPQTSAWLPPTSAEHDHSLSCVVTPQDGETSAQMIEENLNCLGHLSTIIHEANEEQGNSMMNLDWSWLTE
Sequence of CAMK1 (Q14012 whole entry): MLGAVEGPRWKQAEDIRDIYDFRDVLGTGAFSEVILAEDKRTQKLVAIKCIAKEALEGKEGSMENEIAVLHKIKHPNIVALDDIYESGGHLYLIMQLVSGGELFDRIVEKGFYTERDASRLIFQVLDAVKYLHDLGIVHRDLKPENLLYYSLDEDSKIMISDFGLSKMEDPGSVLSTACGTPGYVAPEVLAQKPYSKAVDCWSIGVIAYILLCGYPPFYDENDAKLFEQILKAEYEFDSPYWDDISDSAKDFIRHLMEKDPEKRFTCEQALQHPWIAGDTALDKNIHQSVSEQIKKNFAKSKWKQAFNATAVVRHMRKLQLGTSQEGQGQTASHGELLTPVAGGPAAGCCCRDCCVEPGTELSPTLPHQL
Sequence of RIOK1 (Q9BRS2 whole entry): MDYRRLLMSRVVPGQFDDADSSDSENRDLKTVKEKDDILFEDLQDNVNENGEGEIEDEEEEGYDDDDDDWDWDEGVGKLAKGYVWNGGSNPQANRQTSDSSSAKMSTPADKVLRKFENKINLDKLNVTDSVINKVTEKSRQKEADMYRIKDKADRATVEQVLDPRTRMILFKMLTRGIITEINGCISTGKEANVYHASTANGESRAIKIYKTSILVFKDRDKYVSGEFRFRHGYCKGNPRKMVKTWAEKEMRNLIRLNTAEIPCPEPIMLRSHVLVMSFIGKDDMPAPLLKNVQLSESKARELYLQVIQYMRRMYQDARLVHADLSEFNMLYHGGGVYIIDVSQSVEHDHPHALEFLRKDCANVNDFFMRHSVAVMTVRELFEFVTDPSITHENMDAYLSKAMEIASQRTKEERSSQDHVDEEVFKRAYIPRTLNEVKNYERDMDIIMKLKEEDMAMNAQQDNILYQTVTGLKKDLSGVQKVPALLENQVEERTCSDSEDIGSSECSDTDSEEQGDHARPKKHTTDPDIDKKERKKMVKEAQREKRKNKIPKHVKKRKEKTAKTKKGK

## CN1C(=O)[C@@H](N2CCc3c(nn(Cc4ccccc4)c3C(N)=O)C2=O)COc2cc(Cl)ccc21 [Compound 10, (S)-2-benzyl-6-(8-chloro-5-methyl-4-oxo-2,3,4,5-tetrahydrobenzo[b][1,4]oxazepin-3-yl)-7-oxo-4,5,6,7-tetrahydro-2H-pyrazolo[3,4-c]pyridine-3-carboxamide]
PDPK1
  remaining binding at 1 µM: 91%
INSR
  remaining binding at 1 µM: 98%
PIM1
  remaining binding at 1 µM: 78%
DLK
  remaining binding at 1 µM: 81%
CAMK1; 1000 nM
  remaining binding at 1 µM: 100%
CAMK1; compound concentration 100 nM, Entrez CAMK1
  remaining binding at 0.1 µM: 90%
FGR; 1000 nM
  remaining binding at 1 µM: 100%
FGR; compound concentration 100 nM, Entrez FGR
  remaining binding at 0.1 µM: 77%
EPHB3; 1000 nM
  remaining binding at 1 µM: 100%
EPHB3; compound concentration 100 nM, Entrez EPHB3
  remaining binding at 0.1 µM: 71%
CDK2
  remaining binding at 1 µM: 92%
VRK2
  remaining binding at 0.1 µM: 77%
FGFR3; 1000 nM
  remaining binding at 1 µM: 100%
FGFR3; compound concentration 100 nM, Entrez FGFR3
  remaining binding at 0.1 µM: 100%
PDGFRB
  remaining binding at 1 µM: 87%
ERK2
  remaining binding at 1 µM: 95%
IRAK3; 1000 nM
  remaining binding at 1 µM: 100%
IRAK3; compound concentration 100 nM, Entrez IRAK3
  remaining binding at 0.1 µM: 95%
RIOK1
  remaining binding at 1 µM: 85%
[1]
  remaining binding at 1 µM: 93%
[2]
  remaining binding at 0.1 µM: 100%
TNK1
  remaining binding at 1 µM: 77%
ROCK2
  remaining binding at 1 µM: 74%
MARK1
  remaining binding at 0.1 µM: 76%
PAK1
  remaining binding at 1 µM: 76%
YSK1
  remaining binding at 0.1 µM: 97%
MEK6
  remaining binding at 0.1 µM: 88%
[3]
  remaining binding at 0.1 µM: 81%
IKK-alpha; 1000 nM
  remaining binding at 1 µM: 100%
IKK-alpha; compound concentration 100 nM, Entrez CHUK
  remaining binding at 0.1 µM: 93%
ULK2
  remaining binding at 0.1 µM: 80%
CSNK1A1L
  remaining binding at 1 µM: 85%
MLK3
  remaining binding at 1 µM: 92%
PRKG2
  remaining binding at 1 µM: 90%
ERK4
  remaining binding at 1 µM: 92%
[4]
  remaining binding at 0.1 µM: 100%
STK33
  remaining binding at 0.1 µM: 80%
ERBB4
  remaining binding at 1 µM: 87%
AKT3; 1000 nM
  remaining binding at 1 µM: 100%
AKT3; compound concentration 100 nM, Entrez AKT3
  remaining binding at 0.1 µM: 100%
MERTK
  remaining binding at 1 µM: 98%
p38-gamma
  remaining binding at 1 µM: 70%
NEK5
  remaining binding at 1 µM: 96%
